Measurements taken from patent US12696900B2, “Crop enhancement” (SYNGENTA CROP PROTECTION AG, priority 2020, dated 2026).

Legend:
[1] = system: Corn seeds (var. NK Falkone); assay: Corn germination test (24 well plates, kinetic analysis of germination); format: in vivo; settings: for Plateau of Germination (total percentage of germinated seeds), Sign. / Time taken to reach 50% germination of corn, Sign. / Uniformity of Germination (slope of the curve), Sign.: significance vs untreated, p<0.05, ns=not significant; for Plateau of Germination (total percentage of germinated seeds), total % of germinated seeds / Time taken to reach 50% germination of corn, Relative T50 / Uniformity of Germination (slope of the curve), Relative slope: untreated = 100
Procedure: Corn seeds (var. NK Falkone, Syngenta Seeds SAS, St. Sauveur, France) were sorted by size using a sieve to eliminate round seeds. The corn seeds were placed in 24 well plates (1 seed per well; each plate was considered as one experimental unit or replicate). Germination was initiated by the addition of 250 μl of distilled water containing 0.5% dimethyl sulfoxide (DMSO) to each well (with isocycloseram present at a concentration of either 1, 5, 25 or 125 μM). 8 replicates (i.e. 8 plates) were used for each treatment characterisation. The plates were sealed using seal foil (Polyolefin Art. Nr. 900320) from HJ-BIOANALYTIK. All plates were placed in a climatic chamber at either 15° C. or 23° C., with 60% Relative Humidity. The experiment was laid out in a completely randomized design. Germination was followed over time by taking photographs at different time points. Image analysis was performed automatically with a macro which was developed using the Image J software. A kinetic analysis of germination was carried out by fitting a trend curve. Three parameters were calculated from the trend curve: the T50 (time taken for 50% germination; related to speed of germination); the slope of the curve (the uniformity of germination) and the plateau (the total percentage of germinated seeds). […] The results are expressed in terms of percentage in comparison to the control (untreated seeds) for each temperature group respectively. The results were analysed statistically to highlight significant differences (p<0.05). (Key: Sign.=significance; ns=not significant)
All three parameters have a high agronomical relevance. Significant differences between treated seeds and untreated control are given at p<0.05 (Anova). T50 corresponds to the time needed for half of the seed population to germinate; lower values indicate faster germination. Slope indicates how synchronous the germination of the seed population is; values greater than 100 indicate a steeper curve. The steeper the curve, the better and more uniform the germination is. […] At the two highest rates, the speed of germination (T50) was faster at both temperatures, indicating a positive impact on germination speed.

[2] = system: Wheat seeds (winter wheat variety Syllon); assay: Wheat germination test under increased salinity (salt stress); format: in vivo; settings: for Time taken to reach 50% germination of wheat, Sign. / Time taken to reach 50% germination of wheat, Relative T50: increased salinity, 12.5 mM NaCl solution, 23° C.; for Time taken to reach 50% germination of wheat, Sign.: significance vs untreated, p<0.05; for Time taken to reach 50% germination of wheat, Relative T50: untreated = 100
Procedure: Wheat seeds (winter wheat variety Syllon, Syngenta Seeds) were placed in 24 well plates (1 seed per well, each plate was considered as one experimental unit or replicate). […] Subsequently, a salt solution was prepared at this concentration and spiked with the test compound at different rates as shown below in Table 3, and the germination test was repeated under salt stress. Eight replicates (i.e. 8 plates) were used for each treatment. Plates were sealed with seal foil (Polyolefin Art. Nr. 900320) from HJ-BIOANALYTIK. All plates were placed in a climatic chamber at 23° C. with 70% Relative Humidity. The experiment was laid out in a completely randomized design. Germination was followed over time by taking photographs at different time points. Image analysis was performed automatically with a macro which was developed using the Image J software. A kinetic analysis of germination was carried out by fitting a trend curve. Three parameters were calculated from the trend curve: the T50 (time taken for 50% germination; speed of germination); the slope of the curve (the uniformity of germination) and the plateau (the total percentage of germinated seeds). […] The results are expressed in terms of percentage in comparison to the check (untreated seeds) and the results are analysed statistically to highlight significant differences (p<0.05). (Key: Sign.=significance)
T50 corresponds to the time needed for half of the seed population to germinate and is a germination parameter of high agronomical relevance. Significant differences between treated seeds and untreated control are given at p<0.05 (Anova). Lower values indicate faster germination.

[3] = 15° C. (cold conditions), isocycloseram 1 μM
[4] = 15° C. (cold conditions), isocycloseram 5 μM
[5] = 15° C. (cold conditions), isocycloseram 25 μM
[6] = 15° C. (cold conditions), isocycloseram 125 μM
[7] = 23° C. (normal conditions), isocycloseram 1 μM
[8] = 23° C. (normal conditions), isocycloseram 5 μM
[9] = 23° C. (normal conditions), isocycloseram 25 μM
[10] = 23° C. (normal conditions), isocycloseram 125 μM

In the case of `CCN1OCC(NC(=O)c2ccc(C3=NOC(c4cc(Cl)c(F)c(Cl)c4)(C(F)(F)F)C3)cc2C)C1=O` (stereo not shown) [Isocycloseram, isocycloseram], the “Plateau of Germination (total percentage of germinated seeds), Sign.” value [1, 3] is reported as “ns”, the “Time taken to reach 50% germination of corn, Sign.” value [1, 3] is reported as “ns” and the “Uniformity of Germination (slope of the curve), Sign.” value [1, 3] is reported as “ns”. The “Plateau of Germination (total percentage of germinated seeds), total % of germinated seeds” value [1, 3] was 103 percentage in comparison to the control, the “Time taken to reach 50% germination of corn, Relative T50” value [1, 3] was 99.67 percentage in comparison to the control and the “Uniformity of Germination (slope of the curve), Relative slope” value (shortened to “Uniformity of Germination … Relative slope”) [1, 3] was 100 percentage in comparison to the control. For the same molecule, the “Plateau of Germination (total percentage of germinated seeds), Sign.” value [1, 4] was “higher”, the “Time taken to reach 50% germination of corn, Sign.” value [1, 4] was “ns” and the “Uniformity of Germination (slope of the curve), Sign.” value [1, 4] was “ns”. For the same molecule, the “Plateau of Germination (total percentage of germinated seeds), total % of germinated seeds” value [1, 4] was 105 percentage in comparison to the control, the “Time taken to reach 50% germination of corn, Relative T50” value [1, 4] was 101.73 percentage in comparison to the control and the “Uniformity of Germination … Relative slope” value [1, 4] was 98 percentage in comparison to the control. The “Plateau of Germination (total percentage of germinated seeds), Sign.” value [1, 5] was “higher”, the “Time taken to reach 50% germination of corn, Sign.” value [1, 5] was “Faster” and the “Uniformity of Germination (slope of the curve), Sign.” value [1, 5] was “more”. For the same molecule, the “Plateau of Germination (total percentage of germinated seeds), total % of germinated seeds” value [1, 5] was 106 percentage in comparison to the control, the “Time taken to reach 50% germination of corn, Relative T50” value [1, 5] was 93.1 percentage in comparison to the control and the “Uniformity of Germination … Relative slope” value [1, 5] was 233 percentage in comparison to the control. For the same molecule, the “Plateau of Germination (total percentage of germinated seeds), Sign.” value [1, 6] was “higher”, the “Time taken to reach 50% germination of corn, Sign.” value [1, 6] was “Faster” and the “Uniformity of Germination (slope of the curve), Sign.” value [1, 6] was “more”. The “Plateau of Germination (total percentage of germinated seeds), total % of germinated seeds” value [1, 6] was 105 percentage in comparison to the control, the “Time taken to reach 50% germination of corn, Relative T50” value [1, 6] was 90.61 percentage in comparison to the control and the “Uniformity of Germination … Relative slope” value [1, 6] was 191 percentage in comparison to the control. For the same molecule, the “Plateau of Germination (total percentage of germinated seeds), Sign.” value [1, 7] was “ns”, the “Time taken to reach 50% germination of corn, Sign.” value [1, 7] was “Slower” and the “Uniformity of Germination (slope of the curve), Sign.” value [1, 7] was “less”. The “Plateau of Germination (total percentage of germinated seeds), total % of germinated seeds” value [1, 7] was 103.63 percentage in comparison to the control, the “Time taken to reach 50% germination of corn, Relative T50” value [1, 7] was 107.32 percentage in comparison to the control and the “Uniformity of Germination … Relative slope” value [1, 7] was 80.22 percentage in comparison to the control. The “Plateau of Germination (total percentage of germinated seeds), Sign.” value [1, 8] was “ns”, the “Time taken to reach 50% germination of corn, Sign.” value [1, 8] was “Slower” and the “Uniformity of Germination (slope of the curve), Sign.” value [1, 8] was “ns”. The “Plateau of Germination (total percentage of germinated seeds), total % of germinated seeds” value [1, 8] was 103.63 percentage in comparison to the control, the “Time taken to reach 50% germination of corn, Relative T50” value [1, 8] was 105.17 percentage in comparison to the control and the “Uniformity of Germination … Relative slope” value [1, 8] was 93.8 percentage in comparison to the control. The “Plateau of Germination (total percentage of germinated seeds), Sign.” value [1, 9] was “higher”, the “Time taken to reach 50% germination of corn, Sign.” value [1, 9] was “Faster” and the “Uniformity of Germination (slope of the curve), Sign.” value [1, 9] was “more”. The “Plateau of Germination (total percentage of germinated seeds), total % of germinated seeds” value [1, 9] was 105.39 percentage in comparison to the control, the “Time taken to reach 50% germination of corn, Relative T50” value [1, 9] was 95.22 percentage in comparison to the control and the “Uniformity of Germination … Relative slope” value [1, 9] was 133.81 percentage in comparison to the control. The “Plateau of Germination (total percentage of germinated seeds), Sign.” value [1, 10] was “ns”, the “Time taken to reach 50% germination of corn, Sign.” value [1, 10] was “Faster” and the “Uniformity of Germination (slope of the curve), Sign.” value [1, 10] was “more”. The “Plateau of Germination (total percentage of germinated seeds), total % of germinated seeds” value [1, 10] was 100.7 percentage in comparison to the control, the “Time taken to reach 50% germination of corn, Relative T50” value [1, 10] was 92.47 percentage in comparison to the control and the “Uniformity of Germination … Relative slope” value [1, 10] was 176.64 percentage in comparison to the control. For the same molecule, the “changes in germination rate and uniformity (corn)” value ([1]; isocycloseram 1, 5, 25 and 125 μM, 15° C. or 23° C., especially under the colder conditions and higher concentrations) was “significant changes in germination rate and uniformity”, the “effect on corn seed germination kinetics” value ([1]; low temperature (15° C.)) was “consistent effect” and the “effect on wheat seed germination kinetics” value ([2]; increased salinity (salt stress)) was “consistent effect”. The “Time taken to reach 50% germination of wheat, Sign.” value ([2]; isocycloseram 1 μM) was “Faster”, the “Time taken to reach 50% germination of wheat, Relative T50” value ([2]; isocycloseram 1 μM) was 95.27 percentage in comparison to the check and the “Time taken to reach 50% germination of wheat, Sign.” value ([2]; isocycloseram 5 μM) was “Faster”. The “Time taken to reach 50% germination of wheat, Relative T50” value ([2]; isocycloseram 5 μM) was 94.70 percentage in comparison to the check, the “Time taken to reach 50% germination of wheat, Sign.” value ([2]; isocycloseram 25 μM) was “Faster” and the “Time taken to reach 50% germination of wheat, Relative T50” value ([2]; isocycloseram 25 μM) was 93.07 percentage in comparison to the check. For the same molecule, the “changes in germination speed (wheat)” value ([2]; isocycloseram 1, 5, and 25 μM, salt stress, 12.5 mM NaCl) was “significant changes in germination speed”.
